# Assays:
# Assay type in all cases: cell-based, human
# CD34+ cells [1] = assay: adhesion of CD34+ cells to ABME on coverslips; settings: 10 ngml^-1, 18 hours; CD34+/MNC contact 1 hour; vs reference coverslip
# Procedure: Mesenchyme cells were grown on a sterile 1 cm×1 cm glass coverslip to near confluence and were covered with a treatment medium containing 10 ngml^−1 TGF-β1 and were incubated for 18 hours in a humidified sterile atmosphere and 5% CO2. The coverslips were then washed with PBS, and the ABME thus created were covered with a suspension of 2×10^6 MNC or 2×10^5 CD34^+ cells in 0.2 ml of IMDM with 20% serum. After 1 hour at 37° C., the coverslips were washed with PBS and the cells were fixed and stained with a CD34^+ specific antibody (clone HPCA1, Becton Dickinson, USA). The number of CD34^+ cells attached were counted and compared to the number of similar cells that were attached in a parallel reference experiment where TGF-β1 was not used. […] It may be seen from FIGS. 6(d-f) that there is an increased adhesion of CD34^+ cells to mesenchymal cells when mesenchymal cells are treated with TGF-β1.
# mesenchymal cells = assay: Hypoxy probe incorporation in ABME under normoxic conditions; settings: 200 μM Hypoxy probe, 48 hours; FIG. 11b
# Procedure: Mesenchymal cells were processed for ABME formation as per details given in Example 7(a) above using a biological modulator namely TGFbeta1 and were incubated with 200 μM Hypoxy probe (Chemicon, USA) for 48 hours. The cells were fixed and immuno-stained with an antibody specific for detection of the label (Chemicon).
# HIF1α = HIF1α immunostaining of mesenchymal cells; settings: immunostaining vs control cells; FIG. 11a
# Description: Mesenchymal cells were processed for ABME formation as per details given in experiment #1 above using a biological modulator namely TGFbeta1. The cells were fixed after the indicated time periods and immuno-stained with an antibody to HIF1α which is a specific transcription factor related to hypoxia.
# MNC = assay: self renewal: GEMM colony formation of MNC mixed with doses of ABME cells
# Procedure: The mesenchyme cells were grown in IMDM plus 20% fetal bovine serum until they were nearly confluent. The medium was removed and was washed 2× with PBS. ABME was prepared by using a biological hematomodulator namely, TGF beta 1(20 ng ml−1).The ABME formed was washed 2× with PBS and the cells were dissociated with a non-enzymatic solution (Sigma). A fixed number of MNC namely 2×10^5 were mixed with various doses of dissociated mesenchymal cells (2×10^4, 5×10^4 and 1×10^5) and incubated for 1 hour. At the end of the incubation, cells were processed for hematopoietic colony formation assays (HCFA). […] Secondly the lowest concentration of cells from ABME (2×10^4) was more efficient in the stimulation of GEMM formation than the highest concentration (1×10^5) of mesenchymal cells indicating a nearly 10 fold increase in the efficiency.
# CD34+ cells [2] = assay: self renewal: CD34+ cell number after 48 hours on ABME; Jagged1 expression
# Procedure: Mesenchyme cells were grown on a sterile 1 cm×1 cm glass coverslip to near confluence and were covered with a treatment medium containing 10 ngml^−1 TGF-β1 and were incubated for 18 hours in a humidified sterile atmosphere and 5% CO2. The coverslips were then washed with PBS, and the ABME thus created were covered with a suspension of 2×10^5 CD34^+ cells in 0.2 ml of IMDM with 20% serum. The cells were washed after one hour and the bound cells were covered with medium with 20% serum containing 0.8% methyl cellulose and growth factors. The change in CD34^+ cell number after 48 hours was monitored with a CD34^+ specific antibody (clone HPCA1, Becton Dickinson, USA).
# mesenchyme cells = assay: SDF-1α release / in vitro homing of CD34+ SPC (conditioned medium of treated mesenchyme cells); settings: 10 ngml^-1, 4 hours treatment, conditioned medium after 18 hours; vs untreated reference
# Procedure: 5×10^5 mesenchyme cells were grown on a 35 mm diameter Petri dish (Becton Dickinson, USA) in IMDM containing 20% serum. After the cells were confluent, the medium was removed, the cells were washed 2× with Phosphate buffered saline (GIBCO-BRL) (PBS) and the medium was changed to treatment medium containing 10 ngml^−1 of TGFβ1 and the dishes were returned to standard cell culture environment at 37° C. in 5% CO2. After 4 hours, the treatment medium was removed, the cells were washed with PBS and were covered with 1 ml of IMDM containing 0.5% serum and incubation at 37° C. in 5% CO2 was continued. After 18 hours, the conditioned medium was collected and was assayed for its ability to support in vitro homing of CD34^+ SPC. In another parallel experiment, an equal number of mesenchymal cells were employed, where TGF-β1 was not used and the conditioned medium obtained from this experiment was used as a reference for comparison. […] As shown in FIGS. 6(a-b) untreated mesenchymal cells show no or marginal homing as compared to mesenchymal cells treated with TGF-β1. The homing could be modulated in this case either by adding suitable amounts of a neutralizing antibody to SDF-1α or to its receptor CXCR-4 to neutralize its effects on chemo-attraction of SPC or by destroying the gradient by exogenous addition of SDF1α indicating the specificity of the process.
# CD34+ SPC = assay: lineage commitment: HCFA with CD34+ SPC, count of mature blood cells after 14 days; settings: 10 ngml^-1, 18 hours; HCFA 14 days; FIG. 8a
# Procedure: The mesenchyme cells (5×10^4 cells per well in a 24 well dish) were grown in IMDM plus 20% fetal bovine serum until they were nearly confluent. The medium was removed and was washed 2× with PBS. Two different ABME were prepared by using two biological hematomodulators (TGFβ1 10 ngml^−1, bFGF 10 ngml^−1, 18 hours) separately. The ABME formed was washed 2× with PBS and was covered with 0.2 ml of a suspension of CD34^+ SPC cells (10^5 ml−1) for 1 hour at 37° C. All the cells of the dish were then harvested after washing and were used in a HCFA. After 14 days, the mature blood cells formed were harvested and an aliquot of the suspension was examined under the microscope to identify and count the mature lymphoid and myeloid cells.
# The mesenchyme cells (5×10^4 cells per well in a 24 well dish) were grown in IMDM plus 20% fetal bovine serum until they were nearly confluent. The medium was removed and was washed 2× with PBS. The cells in one well were treated with a DiBromo derivative of the Calcium ion chelator BAPTA (5 micromolar) for one hour whereas another well received only the medium without the BAPTA derivative. After 1 hour of incubation at 37° C., TGFβ1 was added to both the wells (10 ng ml−1) and the incubation was continued for a further period of 18 hours. The ABME formed in both wells were washed and were used for HCFA using CD34^+ SPC. After 14 days the mature blood cells were harvested and were quantitated for the cells of erythroid and myeloid lineage.
substance,measurement,setting,value
HumanTransforming Growth Factor beta1 [TGFβ1],number of CD34+ cells attached to ABME,CD34+ cells [1],significantly more number of CD34^+ cells attached
same,Hypoxy probe label incorporation,mesenchymal cells,high incorporation of the label
same,HIF1α expression,HIF1α,clear nuclear expression of HIF1α
same,GEMM colony formation,"MNC; 20 ng ml-1, 2×10^5 MNC with 2×10^4, 5×10^4, 1×10^5 ABME cells vs control mesenchymal cells, FIG. 10a",clear dose dependent increase in GEMM colony formation
same,increase in efficiency of GEMM stimulation,MNC; 2×10^4 ABME cells vs 1×10^5 mesenchymal cells,~10 fold
same,CD34+ cell proliferation,"CD34+ cells [2]; 10 ngml^-1, 18 hours, CD34+ number after 48 hours, vs no TGFβ1, FIG. 10b",supported more CD34^+ cell proliferation
same,Jagged1 amount in ABME,"CD34+ cells [2]; compared to mesenchyme cells, FIG. 10c","significantly more amounts of the promoter of self renewal, Jagged1"
same,SDF-1α release from mesenchymal cells,mesenchyme cells,significantly more amounts of SDF-1α was released
same,mature lymphoid and myeloid cells formed,CD34+ SPC,supported more myeloid cell formation

# — US20080241870A1, “Composition For Creating an Artificial Bone Marrow Like Environment and Use Thereof” (NATIONAL CENTRE FOR CELL SCINECES, priority 2005, published 2008)
